Source: patent publication US8269026B2, “Lupane derivatives useful for treating HIV” (priority 2008, dated 2012)
Where two headings read alike, the source gives them in different places.

Test system: HIV-1 (HIVIIIB) replication in MT2 cell line
Assay: HIV-1 replication in MT2 cell line with and without 30% human serum (viral RT activity in supernatant)
Format: cell-based
Settings: Human immunodeficiency virus 1, MT2 cells, average IC50 if tested more than once
Experimental: HIV-1 Replication in MT2 cell line with and without 30% human serum: The cells are infected at a Multiciplicity of Infection (MOI) of 0.5 for 3 h and then washed twice with complete media to remove residual virus. Cells are then resuspended at 0.5×10^6/ml in complete medium (RPMI, 10% FBS, 1% sodium pyruvate), and seeded into 96-well plates (6.25×10^4/well). The cells are cultured in the presence or absence of various concentrations of test compounds in serial dilutions for 3 days at 37° C. The test compounds are serially diluted in complete medium supplemented or not with 30% human serum. After 3 days, 100 μL of cultured medium with cells are replaced with 120 μL of freshly diluted test compounds in complete medium containing or not 30% Human serum. The level of HIV-1 replication is determined at days 5 after infection by the presence of viral RT activity in harvested supernatant fluid. The IC50 and IC90 values for the virus replication are determined by using GRAPHPAD PRISM software.
The IC50 of the compounds tested in accordance with the HIV replication activity assay MT2 (HIVIIIB) are represented in Table 1.

[1] = with 30% human serum, read-out: MT2 (HIVIIIB) with HS 30% IC50 range
[2] = without human serum, read-out: MT2 (HIVIIIB) IC50 range

Structure (SMILES)	IC50 [1] [nM]	IC50 [2] [nM]
CC(C)C1=C2C3CCC4[C@@]5(C)CC[C@H](OC(=O)CC(C)(C)C(=O)O)C(C)(C)C5CC[C@@]4(C)[C@]3(C)CC[C@@]2(NC(=O)C2CCOCC2)CC1=O (stereo partly drawn) [19-30, 3β-O-(3′,3′-Dimethylsuccinyl)-17β-tetrahydro-pyran-4-carbonylamino-21-oxolup-18-ene]	< 199	–
CC(C)C1=C2[C@H]3CC[C@@H]4[C@@]5(C)CC[C@H](OC(=O)CC(C)(C)C(=O)O)C(C)(C)[C@@H]5CC[C@@]4(C)[C@]3(C)CC[C@@]2(NC(=O)C2CCNCC2)CC1=O [19-6, 3β-O-(3′,3′-Dimethylsuccinyl)-17β-(piperidine-4-amido)-21-oxolup-18-ene]	> 1000	< 199
CC(C)C1=C2C3CCC4[C@@]5(C)CC[C@H](OC(=O)CC(C)(C)C(=O)O)C(C)(C)C5CC[C@@]4(C)[C@]3(C)CC[C@@]2(NC(=O)N[C@H](C)C2CCCCC2)CC1=O (stereo partly drawn) [17-55, 3β-O-(3′,3′-Dimethylsuccinyl)-17β-[N′-((R)-1-cyclohexyl-ethyl)ureido]-21-oxolup-18-ene]	< 199	–
CC(C)C1=C2[C@H]3CC[C@@H]4[C@@]5(C)CC[C@H](OC(=O)CC(C)(C)C(=O)O)C(C)(C)[C@@H]5CC[C@@]4(C)[C@]3(C)CC[C@@]2(NC(=O)Nc2ccccc2)CC1=O [17-3, 3β-O-(3′,3′-Dimethylsuccinyl)-17β-[N′-(phenyl)ureido]-21-oxolup-18-ene]	< 199	< 199
CC(C)C1=C2C3CCC4[C@@]5(C)CC[C@H](OC(=O)CC(C)(C)C(=O)O)C(C)(C)C5CC[C@@]4(C)[C@]3(C)CC[C@@]2(NC(=O)C2CC3CCC(C2)O3)CC1=O (stereo partly drawn) [19-70, 3β-O-(3′,3′-Dimethylsuccinyl)-17β-(8β-oxa-bicyclo[3.2.1]octane-3-amido)-21-oxolup-18-ene]	< 199	–
CC(C)C1=C2[C@H]3CC[C@@H]4[C@@]5(C)CC[C@H](OC(=O)[C@H]6CC[C@@](C)(C(=O)O)C6(C)C)C(C)(C)[C@@H]5CC[C@@]4(C)[C@]3(C)CC[C@@]2(NC(=O)OC(C)(C)C)CC1=O [14-3, 3β-O-[(1′R,3′S)-1′,2′,2′-Trimethyl-cyclopentane-3′-carboxylic acid-1′-carboxyl]-17β-[N-tert-butyloxycarbonyl-amino]-21-oxolup-18-ene]	< 199	–
Cc1nnc(CNC(=O)N[C@@]23CC[C@]4(C)C(CCC5[C@@]6(C)CC[C@H](OC(=O)CC(C)(C)C(=O)O)C(C)(C)C6CC[C@]54C)C2=C(C(C)C)C(=O)C3)o1 (stereo partly drawn) [17-65, 3β-O-(3′,3′-Dimethylsuccinyl)-17β-[N′-(2-methyl-[1,3,4]oxadiazol-2-ylmethyl)-ureido]-21-oxolup-18-ene]	< 199	–
Cc1nnc(C(=O)N[C@@]23CC[C@]4(C)[C@H](CC[C@@H]5[C@@]6(C)CC[C@H](OC(=O)CC(C)(C)C(=O)O)C(C)(C)[C@@H]6CC[C@]54C)C2=C(C(C)C)C(=O)C3)o1 [19-4, 3β-O-(3′,3′-Dimethylsuccinyl)-17β-(5-methyl-[1,3,4]oxadiazole-2-amido)-21-oxolup-18-ene]	< 199	< 199
Cc1cc(C(=O)N[C@@]23CC[C@]4(C)C(CCC5[C@@]6(C)CC[C@H](OC(=O)CC(C)(C)C(=O)O)C(C)(C)C6CC[C@]54C)C2=C(C(C)C)C(=O)C3)no1 (stereo partly drawn) [19-24, 3β-O-(3′,3′-Dimethylsuccinyl)-17β-(5-methylisoxazole-3-amido)-21-oxolup-18-ene]	< 199	< 199
Cc1nc(C(=O)N[C@@]23CC[C@]4(C)C(CCC5[C@@]6(C)CC[C@H](OC(=O)CC(C)(C)C(=O)O)C(C)(C)C6CC[C@]54C)C2=C(C(C)C)C(=O)C3)cs1 (stereo partly drawn) [19-72, 3β-O-(3′,3′-Dimethylsuccinyl)-17β-(2-methyl-1,3-thiazole-4-amido)-21-oxolup-18-ene]	< 199	–
CC(C)C1=C2C3CCC4[C@@]5(C)CC[C@H](OC(=O)CC(C)(C)C(=O)O)C(C)(C)C5CC[C@@]4(C)[C@]3(C)CC[C@@]2(NC(=O)OC2CCS(=O)(=O)CC2)CC1=O (stereo partly drawn) [20-15, 3β-O-(3′,3′-Dimethylsuccinyl)-17β-(1,1-dioxo-tetrahydro-thiopyran-4-oxycarbonylamino)-21-oxolup-18-ene]	< 199	–
CC(C)C1=C2[C@H]3CC[C@@H]4[C@@]5(C)CC[C@H](OC(=O)CC(C)(C)C(=O)O)C(C)(C)[C@@H]5CC[C@@]4(C)[C@]3(C)CC[C@@]2(NC(=O)N2CCOCC2)CC1=O [17-13, 3β-O-(3′,3′-Dimethylsuccinyl)-17β-[(morpholine-4-carbonyl)-amino]-21-oxolup-18-ene]	< 199	–
CC(C)C1=C2C3CCC4[C@@]5(C)CC[C@H](OC(=O)CC(C)(C)C(=O)O)C(C)(C)C5CC[C@@]4(C)[C@]3(C)CC[C@@]2(NC(=O)[C@@H]2CCCN2C(C)C)CC1=O (stereo partly shown) [19-56]	< 199	–
CC(C)C1=C2[C@H]3CC[C@@H]4[C@@]5(C)CC[C@H](OC(=O)CC(C)(C)C(=O)O)C(C)(C)[C@@H]5CC[C@@]4(C)[C@]3(C)CC[C@@]2(NC(=O)NC2CN(C(=O)OC(C)(C)C)C2)CC1=O [17-33, 3β-O-(3′,3′-Dimethylsuccinyl)-17β-[N′-(1-tert-butyloxycarbonyl-azetidin-3-yl)-ureido]-21-oxolup-18-ene]	< 199	–
CC(C)C1=C2C3CCC4[C@@]5(C)CC[C@H](OC(=O)CC(C)(C)C(=O)O)C(C)(C)C5CC[C@@]4(C)[C@]3(C)CC[C@@]2(NC(=O)NCc2cccnc2)CC1=O (stereo partly drawn) [17-12, 3β-O-(3′,3′-Dimethylsuccinyl)-17β-[N′-(pyridin-3-ylmethyl)ureido]-21-oxolup-18-ene]	< 199	–
CCNC(=O)N[C@@]12CC[C@]3(C)[C@H](CC[C@@H]4[C@@]5(C)CC[C@H](OC(=O)CC(C)(C)C(=O)O)C(C)(C)[C@@H]5CC[C@]43C)C1=C(C(C)C)C(=O)C2 [17-2, 3β-O-(3′,3′-Dimethylsuccinyl)-17β-[N′-(ethyl)ureido]-21-oxolup-18-ene]	< 199	< 199
CC(C)C1=C2C3CCC4[C@@]5(C)CC[C@H](OC(=O)CC(C)(C)C(=O)O)C(C)(C)C5CC[C@@]4(C)[C@]3(C)CC[C@@]2(NC(=O)OC2CCCCC2)CC1=O (stereo partly drawn) [20-5, 3β-O-(3′,3′-Dimethylsuccinyl)-17β-cyclohexyloxycarbonylamino-21-oxolup-18-ene]	< 199	–
CC(C)C1=C2C3CCC4[C@@]5(C)CC[C@H](OC(=O)CC(C)(C)C(=O)O)C(C)(C)C5CC[C@@]4(C)[C@]3(C)CC[C@@]2(NC(=O)NC(C)c2ccccn2)CC1=O (stereo partly drawn) [17-72, 3β-O-(3′,3′-Dimethylsuccinyl)-17β-[N′-(1-pyridin-2-yl-ethyl)-ureido]-21-oxolup-18-ene]	< 199	–
CC(C)C1=C2[C@H]3CC[C@@H]4[C@@]5(C)CC[C@H](OC(=O)CC(C)(C)C(=O)O)C(C)(C)[C@@H]5CC[C@@]4(C)[C@]3(C)CC[C@@]2(NC(=O)CN2CCCC2)CC1=O [19-38, 3β-O-(3′,3′-Dimethylsuccinyl)-17β-(2-pyrrolidin-1-yl-acetamido)-21-oxolup-18-ene]	< 199	–
CC(C)C1=C2C3CCC4[C@@]5(C)CC[C@H](OC(=O)CC(C)(C)C(=O)O)C(C)(C)C5CC[C@@]4(C)[C@]3(C)CC[C@@]2(NC(=O)NC2CCCCC2)CC1=O (stereo partly drawn) [17-7, 3β-O-(3′,3′-Dimethylsuccinyl)-17β-[N′-(cyclohexyl)ureido]-21-oxolup-18-ene]	< 199	–
CC(C)C1=C2C3CCC4[C@@]5(C)CC[C@H](OC(=O)CC(C)(C)C(=O)O)C(C)(C)C5CC[C@@]4(C)[C@]3(C)CC[C@@]2(NC(=O)c2cscn2)CC1=O (stereo partly drawn) [19-27, 3β-O-(3′,3′-Dimethylsuccinyl)-17β-(1,3-thiazole-4-amido)-21-oxolup-18-ene]	< 199	–
CC(C)C1=C2C3CCC4[C@@]5(C)CC[C@H](OC(=O)CC(C)(C)C(=O)O)C(C)(C)C5CC[C@@]4(C)[C@]3(C)CC[C@@]2(NC(=O)Nc2cccnc2)CC1=O (stereo partly drawn) [17-6, 3β-O-(3′,3′-Dimethylsuccinyl)-17β-[N′-(pyridin-3-yl)ureido]-21-oxolup-18-ene]	< 199	< 199
CC(C)C1=C2[C@H]3CC[C@@H]4[C@@]5(C)CC[C@H](OC(=O)CC(C)(C)C(=O)O)C(C)(C)[C@@H]5CC[C@@]4(C)[C@]3(C)CC[C@@]2(NC(=O)NCc2ccccc2)CC1=O [17-1, 3β-O-(3′,3′-Dimethylsuccinyl)-17β[N′-(benzyl)ureido]-21-oxolup-18-ene]	< 199	< 199
CC(C)C1=C2C3CCC4[C@@]5(C)CC[C@H](OC(=O)CC(C)(C)C(=O)O)C(C)(C)C5CC[C@@]4(C)[C@]3(C)CC[C@@]2(NC(=O)OCC2CC2)CC1=O (stereo partly drawn) [20-3, 3β-O-(3′,3′-Dimethylsuccinyl)-17β-cyclopropylmethoxycarbonylamino-21-oxolup-18-ene]	< 199	< 199
CC(C)C1=C2C3CCC4[C@@]5(C)CC[C@H](OC(=O)CC(C)(C)C(=O)O)C(C)(C)C5CC[C@@]4(C)[C@]3(C)CC[C@@]2(NC(=O)OCC2(C)CC2)CC1=O (stereo partly drawn) [20-11, 3β-O-(3′,3′-Dimethylsuccinyl)-17β-(1-methyl-cyclopropylmethoxycarbonylamino)-21-oxolup-18-ene]	< 199	–
CC(C)C1=C2C3CCC4[C@@]5(C)CC[C@H](OC(=O)CC(C)(C)C(=O)O)C(C)(C)C5CC[C@@]4(C)[C@]3(C)CC[C@@]2(NC(=O)c2ccncn2)CC1=O (stereo partly drawn) [19-25, 3β-O-(3′,3′-Dimethylsuccinyl)-17β-(pyrimidine-4-amido)-21-oxolup-18-ene]	< 199	–
